Measured values as given in ChEMBL document CHEMBL4842357, “Discovery of Novel Apigenin-Piperazine Hybrids as Potent and Selective Poly (ADP-Ribose) Polymerase-1 (PARP-1) Inhibitors for the Treatment of Cancer” (J Med Chem, 2021).
Activity calls are given as the source filed them. No cut-off for these calls is given here.

Tests used:
[1] = target: T1, Poly [ADP-ribose] polymerase 2 (Homo sapiens, UniProt Q9UGN5); assay: Inhibition of PARP-2 (unknown origin)
Homo sapiens [2] = species: Homo sapiens; assay: Selectivity index, ratio of IC50 for PARP-2 (unknown origin) to IC50 for PARP-1 (unknown origin)
[3] = target: T1, Poly [ADP-ribose] polymerase 2; assay: Inhibition of recombinant human full-length PARP-2 using biotinylated substrate
A549 [4] = assay: Cytotoxicity against human A549 cells assessed as induction of CBP cytotoxicity incubated for 48 hrs in presence of CBP by MTT assay; type: functional, cell-based; details: dose 0.1-10 µM
Homo sapiens [5] = species: Homo sapiens; assay: Selectivity index, ratio of IC50 for inhibition of recombinant human full-length PARP-2 to IC50 for inhibition of recombinant human full-length PARP-1
[6] = Renal toxicity in ICR mouse assessed as effect on BUN level at 1000 mg/kg, po administered only once at day 1 and measured every two days for 14 days (reference value: 8.9 +/- 0.9 mmol/L); type: organism-based; details: in vivo, 336 h, time 14 day
[7] = Acute toxicity in ICR mouse assessed as effect on kidney at 1000 mg/kg, po administered only once at day 1 and measured every two days for 14 days; type: organism-based; details: in vivo, 336 h, time 14 day
[8] = Hepatotoxicity in ICR mouse assessed as effect on ALT level at 1000 mg/kg, po administered only once at day 1 and measured every two days for 14 days (reference value: 28.6 +/- 6.9 U/L); type: toxicity, organism-based; details: in vivo, 336 h, time 14 day
[9] = Acute toxicity in ICR mouse assessed as change in body weight at 1000 mg/kg, po administered only once at day 1 and measured every two days for 14 days; type: organism-based; details: in vivo, 336 h, time 14 day
[10] = Acute toxicity in ICR mouse assessed as effect on spleen at 1000 mg/kg, po administered only once at day 1 and measured every two days for 14 days; type: organism-based; details: in vivo, 336 h, time 14 day
SK-OV-3 [11] = assay: Cytotoxicity against human BRCA-1 deficient SK-OV-3 cells assessed as reduction in cell viability at 0.1 to 10 uM incubated for 48 hrs by MTT assay; type: functional, cell-based; details: dose 0.1-10 µM
[12] = Acute toxicity in ICR mouse assessed as change in blood routine at 1000 mg/kg, po administered only once at day 1 and measured every two days for 14 days; type: organism-based; details: in vivo, 336 h, time 14 day
[13] = Hepatotoxicity in ICR mouse assessed as effect on AST level at 1000 mg/kg, po administered only once at day 1 and measured every two days for 14 days (reference value: 61.5 +/- 3.7 U/L); type: toxicity, organism-based; details: in vivo, 336 h, time 14 day
[14] = target: T2, Poly [ADP-ribose] polymerase 1 (Homo sapiens, UniProt P09874); assay: Inhibition of recombinant human full-length PARP-1 using biotinylated substrate
T2 sequence (P09874 whole entry): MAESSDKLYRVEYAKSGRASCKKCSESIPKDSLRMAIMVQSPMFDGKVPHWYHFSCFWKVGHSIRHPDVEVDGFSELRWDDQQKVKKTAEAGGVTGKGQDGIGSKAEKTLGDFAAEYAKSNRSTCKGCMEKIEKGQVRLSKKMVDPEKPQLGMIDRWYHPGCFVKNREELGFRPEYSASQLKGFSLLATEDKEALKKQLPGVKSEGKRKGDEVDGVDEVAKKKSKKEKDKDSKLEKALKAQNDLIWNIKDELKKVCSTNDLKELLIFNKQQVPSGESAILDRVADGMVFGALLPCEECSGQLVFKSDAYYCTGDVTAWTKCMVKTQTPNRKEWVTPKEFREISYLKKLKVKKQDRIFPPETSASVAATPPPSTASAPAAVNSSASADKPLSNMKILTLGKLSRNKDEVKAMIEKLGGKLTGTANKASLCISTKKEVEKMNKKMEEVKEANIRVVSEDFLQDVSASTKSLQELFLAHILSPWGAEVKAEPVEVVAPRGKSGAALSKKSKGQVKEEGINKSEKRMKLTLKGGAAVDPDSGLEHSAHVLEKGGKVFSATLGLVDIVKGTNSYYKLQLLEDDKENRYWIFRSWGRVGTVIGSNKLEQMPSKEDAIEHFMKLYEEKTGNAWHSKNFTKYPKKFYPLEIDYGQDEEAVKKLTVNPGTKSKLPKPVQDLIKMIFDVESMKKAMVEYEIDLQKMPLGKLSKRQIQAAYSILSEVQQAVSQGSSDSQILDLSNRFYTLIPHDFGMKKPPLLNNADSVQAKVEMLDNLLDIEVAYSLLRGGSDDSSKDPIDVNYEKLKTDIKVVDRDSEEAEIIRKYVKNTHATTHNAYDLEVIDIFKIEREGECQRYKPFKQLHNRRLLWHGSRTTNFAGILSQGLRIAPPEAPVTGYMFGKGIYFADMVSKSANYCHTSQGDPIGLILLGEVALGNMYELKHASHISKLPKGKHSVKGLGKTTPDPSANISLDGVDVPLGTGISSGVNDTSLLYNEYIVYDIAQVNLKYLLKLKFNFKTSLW

A549 [15] = assay: Cytotoxicity against human A549 cells assessed as reduction in cell viability at 0.1 to 10 uM incubated for 48 hrs by MTT assay; type: functional, cell-based; details: dose 0.1-10 µM
[16] = target: T2, Poly [ADP-ribose] polymerase 1; assay: Inhibition of PARP-1 in human SK-OV-3 cells assessed as decrease in H2O2-induced PAR level at 0.1 to 10 uM preincubated for 4 hrs followed by H2O2 addition by Western blot analysis; type: cell-based; details: dose 0.1-10 µM
[17] = target: T2, Poly [ADP-ribose] polymerase 1; assay: Inhibition of PARP-1 in human SK-OV-3 cells assessed as decrease in H2O2-induced PAR level preincubated for 4 hrs followed by H2O2 addition by DAPI staining based inverted fluorescence microscopic analysis; type: cell-based
[18] = target: T2, Poly [ADP-ribose] polymerase 1; assay: Inhibition of PARP-1 in human SK-OV-3 cells assessed as decrease in MCM6 protein expression level at 0.1 to 10 uM by Western blot analysis; type: cell-based; details: dose 0.1-10 µM
[19] = target: T2, Poly [ADP-ribose] polymerase 1; assay: Inhibition of PARP-1 in human SK-OV-3 cells assessed as induction of DNA damage by measuring increase in gamma H2AX expression at 0.1 to 10 uM by Western blot analysis; type: cell-based; details: dose 0.1-10 µM
SK-OV-3 [20] = assay: Antitumor activity against human SK-OV-3 cells xenografted in BALB/c nude mouse assessed as decrease in tumor volume at 50 mg/kg, po administered once daily measured for 28 days; type: functional, organism-based; details: time 28.0 day
[21] = target: T2, Poly [ADP-ribose] polymerase 1; assay: Inhibition of PARP-1 in human SK-OV-3 cells assessed as decrease in MCM5 protein expression level at 0.1 to 10 uM by Western blot analysis; type: cell-based; details: dose 0.1-10 µM
[22] = target: T2, Poly [ADP-ribose] polymerase 1; assay: Inhibition of PARP-1 in human SK-OV-3 cells assessed as decrease in MCM4 protein expression level at 0.1 to 10 uM by Western blot analysis; type: cell-based; details: dose 0.1-10 µM
[23] = target: T2, Poly [ADP-ribose] polymerase 1; assay: Inhibition of PARP-1 in human SK-OV-3 cells assessed as decrease in MCM7 protein expression level at 0.1 to 10 uM by Western blot analysis; type: cell-based; details: dose 0.1-10 µM
SK-OV-3 [24] = assay: Antitumor activity against human SK-OV-3 cells xenografted in BALB/c nude mouse assessed as increase in gamma-H2AX expression in tumor at 25 to 50 mg/kg, po measured after 28 days by immunohistochemistry analysis; type: functional, organism-based; details: dose 25-50 mg/kg, time 28.0 day
SK-OV-3 [25] = assay: Antitumor activity against human SK-OV-3 cells xenografted in BALB/c nude mouse assessed as decrease in PAR level at 25 to 50 mg/kg, po measured after 28 days by immunohistochemistry analysis; type: functional, organism-based; details: dose 25-50 mg/kg, time 28.0 day
[26] = target: T2, Poly [ADP-ribose] polymerase 1; assay: Inhibition of PARP-1 in human SK-OV-3 cells assessed as decrease in MCM3 protein expression level at 0.1 to 10 uM by Western blot analysis; type: cell-based; details: dose 0.1-10 µM
A549 [27] = assay: Antitumor activity against human A549 cells xenografted in BALB/c nude mouse assessed as induction of CBP mediated tumor growth inhibition at 50 mg/kg, po administered once daily for 12 days in presence of CBP; type: functional, organism-based; details: time 12.0 day
[28] = target: T1, Poly [ADP-ribose] polymerase 2; assay: Binding affinity to PARP-2 in human SK-OV-3 cells assessed as thermal stabilization after 3 hrs by ITDRF-CETSA; type: cell-based; details: dose 0.1-10 µM
SK-OV-3 [29] = assay: Antitumor activity against human SK-OV-3 cells xenografted in BALB/c nude mouse assessed as decrease in PAR level at 25 to 50 mg/kg, po measured after 28 days by Western blot analysis; type: functional, organism-based; details: dose 25-50 mg/kg, time 28.0 day
A549 [30] = assay: Cytotoxicity against human A549 cells transfected with PARP-1 siRNA assessed as sensitization of CBP at 0.1 to 10 uM incubated for 48 hrs in presence of CBP by MTT assay; type: functional, cell-based; details: dose 0.1-10 µM
[31] = target: T2, Poly [ADP-ribose] polymerase 1; assay: Binding affinity to PARP-1 in human SK-OV-3 cells assessed as thermal stabilization after 3 hrs by ITDRF-CETSA; type: cell-based; details: dose 0.1-10 µM
[32] = target: T2, Poly [ADP-ribose] polymerase 1; assay: Inhibition of PARP-1 in human SK-OV-3 cells assessed as induction of DNA damage by measuring increase in gamma H2AX expression by immunofluorescence assay; type: cell-based
[33] = target: T2, Poly [ADP-ribose] polymerase 1; assay: Inhibition of PARP-1 in human SK-OV-3 cells assessed as decrease in MCM2 protein expression level at 0.1 to 10 uM by Western blot analysis; type: cell-based; details: dose 0.1-10 µM
[34] = target: T2, Poly [ADP-ribose] polymerase 1; assay: Binding affinity to PARP-1 in human SK-OV-3 cells assessed as increase in thermal stabilization of PARP-1 at 1 uM after 3 hrs by CETSA; type: cell-based
A549 [35] = assay: Antitumor activity against human A549 cells xenografted in BALB/c nude mouse assessed as tumor growth inhibition at 50 mg/kg, po administered once daily for 12 days; type: functional, organism-based; details: time 12.0 day
SK-OV-3 [36] = assay: Antitumor activity against human SK-OV-3 cells xenografted in BALB/c nude mouse assessed as increase in gamma-H2AX expression in tumor at 25 to 50 mg/kg, po measured after 28 days by Western blot analysis; type: functional, organism-based; details: dose 25-50 mg/kg, time 28.0 day
[37] = target: T1, Poly [ADP-ribose] polymerase 2; assay: Binding affinity to PARP-2 in human SK-OV-3 cells assessed as increase in thermal stabilization of PARP-2 at 1 uM after 3 hrs by CETSA; type: cell-based
SK-OV-3 [38] = assay: Cytotoxicity against human SK-OV-3 cells transfected with PARP-1 siRNA assessed as reduction in cell viability at 0.1 to 10 uM after 48 hrs by MTT assay; type: functional, cell-based; details: dose 0.1-10 µM
SK-OV-3 [39] = assay: Antitumor activity against human SK-OV-3 cells xenografted in BALB/c nude mouse assessed as relative tumor volume at 50 mg/kg, po administered once daily for 12 days; type: functional; details: time 12 day
[40] = Acute toxicity in ICR mouse assessed as death at 1000 mg/kg, po administered only once at day 1 and measured after 5 to 8 days; type: organism-based; details: in vivo, time 5-8 day

T1 sequence (Q9UGN5 whole entry): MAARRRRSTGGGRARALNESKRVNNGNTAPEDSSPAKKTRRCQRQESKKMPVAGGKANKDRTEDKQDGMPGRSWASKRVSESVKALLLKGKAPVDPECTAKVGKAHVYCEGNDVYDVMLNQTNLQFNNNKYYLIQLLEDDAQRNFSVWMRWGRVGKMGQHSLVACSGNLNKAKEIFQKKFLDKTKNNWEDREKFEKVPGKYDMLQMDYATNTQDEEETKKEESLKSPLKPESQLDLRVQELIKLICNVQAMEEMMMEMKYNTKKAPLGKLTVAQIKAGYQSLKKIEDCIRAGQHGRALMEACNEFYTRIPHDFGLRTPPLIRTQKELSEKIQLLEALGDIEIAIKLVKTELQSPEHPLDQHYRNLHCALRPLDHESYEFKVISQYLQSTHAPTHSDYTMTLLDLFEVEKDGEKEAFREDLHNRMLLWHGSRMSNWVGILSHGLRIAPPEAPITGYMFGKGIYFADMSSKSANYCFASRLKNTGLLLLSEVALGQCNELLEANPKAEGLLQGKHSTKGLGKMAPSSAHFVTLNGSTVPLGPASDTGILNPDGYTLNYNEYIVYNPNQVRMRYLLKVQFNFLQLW

COc1cc(/C=N/NC(N)=S)c(Br)c(Br)c1OC
IC50 [1]: > 1000 nM | Ratio IC50 (Homo sapiens [2]): > 33.9

O=C(c1ccco1)N1CCN(Cc2c(O)cc(O)c3c(=O)cc(-c4ccc(O)cc4)oc23)CC1
IC50 [3]: 800 nM | Activity (A549 [4]): Dose-Dependent Effect | Ratio IC50 (Homo sapiens [5]): 68.3 | Activity [6]: 9.1 mmol/L | Activity [7]: Toxic | Activity [8]: 31.2 U/L | Activity [9]: Non-Toxic | Activity [10]: Toxic | Activity (SK-OV-3 [11]): Active | Activity [12]: Non-Toxic | Activity [13]: 79.3 U/L | IC50 [14]: 13.7 nM | Activity (A549 [15]): inactive

O=c1cc(-c2ccc(O)cc2)oc2c(CN3CCN(Cc4cccs4)CC3)c(O)cc(O)c12
Activity (A549 [4]): Dose-Dependent Effect | inhibition [16]: Active | Ratio IC50 (Homo sapiens [5]): 61.2 | inhibition [17]: Active | inhibition [18]: Active | inhibition [19]: Active | Activity (SK-OV-3 [20]): Active | inhibition [21]: Active | inhibition [22]: Active | inhibition [23]: Active | Activity (SK-OV-3 [24]): Active | Activity (SK-OV-3 [25]): Active | inhibition [26]: Active | Activity (A549 [27]): Active | Activity [28]: Dose-Dependent Effect | Activity (SK-OV-3 [29]): Active | Activity (A549 [30]): inactive | Activity [31]: Dose-Dependent Effect | inhibition [32]: Active | Activity (SK-OV-3 [11]): Active | inhibition [33]: Active | Activity [34]: Active | Activity (A549 [15]): inactive | Activity (A549 [35]): inactive | Activity (SK-OV-3 [36]): Active | Activity [37]: Active | Activity (SK-OV-3 [38]): inactive

O=C(c1cccs1)N1CCN(Cc2c(O)cc(O)c3c(=O)cc(-c4ccc(O)cc4)oc23)CC1
IC50 [3]: 1100 nM | Activity (A549 [4]): Dose-Dependent Effect | Ratio IC50 (Homo sapiens [5]): 69.6 | Activity [6]: 10.3 mmol/L | Activity [7]: Toxic | Activity [8]: 29.6 U/L | Activity [9]: Non-Toxic | Activity [10]: Toxic | Activity (SK-OV-3 [11]): Active | Activity [12]: Non-Toxic | Activity [13]: 77.6 U/L | IC50 [14]: 15.8 nM | Activity (A549 [15]): inactive

Cn1cccc1/C=C1\C(=O)NC(=O)c2ccccc21
IC50 [1]: 40000 nM | Ratio IC50 (Homo sapiens [2]): 88.9

O=C(c1cc(Cc2n[nH]c(=O)c3ccccc23)ccc1F)N1CCN(C(=O)C2CC2)CC1 [OLAPARIB]
Activity (SK-OV-3 [20]): Active | Activity (SK-OV-3 [39]): 2.12

O=c1cc(-c2ccc(O)cc2)oc2c(CN3CCN(Cc4ccco4)CC3)c(O)cc(O)c12
IC50 [3]: 1300 nM | Activity (A549 [4]): Dose-Dependent Effect | Ratio IC50 (Homo sapiens [5]): 72.6 | Activity (SK-OV-3 [11]): Active | Activity [40]: Toxic | IC50 [14]: 17.9 nM | Activity (A549 [15]): inactive

COc1cc(CN2CCN(Cc3c(O)cc(O)c4c(=O)cc(-c5ccc(O)cc5)oc34)CC2)cc(OC)c1
IC50 [3]: 1700 nM | Ratio IC50 (Homo sapiens [5]): 62.5 | IC50 [14]: 27.2 nM

O=C(c1cccnc1)N1CCN(Cc2c(O)cc(O)c3c(=O)cc(-c4ccc(O)cc4)oc23)CC1
IC50 [3]: 1500 nM | Ratio IC50 (Homo sapiens [5]): 57.2 | IC50 [14]: 26.2 nM

Cc1ccc(CN2CCN(Cc3c(O)cc(O)c4c(=O)cc(-c5ccc(O)cc5)oc34)CC2)cc1
IC50 [3]: 1800 nM | Ratio IC50 (Homo sapiens [5]): 58.8 | IC50 [14]: 30.6 nM
